Measurements published in patent US8383683B2, “Pharmaceutical use of substituted amides” (High Point Pharmaceuticals, LLC, priority 2007, dated 2013).

Target: 11βHSD1 (Homo sapiens, UniProt P28845)
Assay: 11βHSD1 enzyme assay (SPA, 3H-cortisone to 3H-cortisol)
Assay type: biochemical
Set-up: An extract of yeast transformed with h-11βHSD1 (Hutt et al., FEBS Lett., 441, 25 (1998)) was used as the source of enzyme; made in house
Conditions: extract of yeast transformed with h-11βHSD1; 120 nM 3H-cortisone, 4 mM β-NADPH, 60 min at 30° C.
Description: Pharmacological Methods 11βHSD1 Enzyme Assay Materials
^3H-cortisone and anti-rabbit Ig coated scintillation proximity assay (SPA) beads were purchased from Amersham Pharmacia Biotech, β-NADPH was from Sigma and rabbit anti-cortisol antibodies were from Fitzgerald. An extract of yeast transformed with h-11βHSD1 (Hutt et al., FEBS Lett., 441, 25 (1998)) was used as the source of enzyme. The test compounds were dissolved in DMSO (10 mM). All dilutions were performed in a buffer containing 50 mM TRIS-HCl (Sigma Chemical Co), 4 mM EDTA (Sigma Chemical Co), 0.1% BSA (Sigma Chemical Co), 0.01% Tween-20 (Sigma Chemical Co) and 0.005% bacitracin (Novo Nordisk NS), pH=7.4. Optiplate 96 wells plates were supplied by Packard. The amount of ^3H-cortisol bound to the SPA beads was measured on TopCount NXT, Packard.
h-11βHSD1, 120 nM ^3H-cortisone, 4 mM β-NADPH, antibody (1:200), serial dilutions of test compound and SPA particles (2 mg/well) were added to the wells. The reaction was initiated by mixing the different components and was allowed to proceed under shaking for 60 min at 30° C. The reaction was stopped be the addition of 10 fold excess of a stopping buffer containing 500 μM carbenoxolone and 1 μM cortisone. Data was analysed using GraphPad Prism software.

11βHSD1, sequence (P28845 whole entry): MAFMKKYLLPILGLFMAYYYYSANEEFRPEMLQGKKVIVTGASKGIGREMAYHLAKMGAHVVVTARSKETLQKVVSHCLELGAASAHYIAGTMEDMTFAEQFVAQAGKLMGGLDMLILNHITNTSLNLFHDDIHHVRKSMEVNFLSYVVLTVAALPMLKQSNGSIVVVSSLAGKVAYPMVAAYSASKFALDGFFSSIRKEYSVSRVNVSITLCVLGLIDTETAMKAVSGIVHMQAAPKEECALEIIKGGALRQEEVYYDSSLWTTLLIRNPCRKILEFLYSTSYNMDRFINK

Structure (SMILES)	IC50
CN(C(=O)CCCOc1ccc(Cl)cc1Cl)C1CCC(O)CC1 (stereo not shown) [Example 1-26, 4-(2,4-Dichloro-phenoxy)-N-(4-hydroxy-cyclohexyl)-N-methyl-butyramide]	21 nM
CCOC(=O)C1CC2CC1CC2N(C)C(=O)CCCOc1ccc(Cl)cc1Cl (stereo not shown) [Example 1-80, 5-{[4-(2,4-Dichloro-phenoxy)-butyryl]-methyl-amino}-bicyclo[2.2.1]heptane-2-carboxylic acid ethyl ester]	700 nM
CN(C(=O)CCCOc1ccc(Cl)cc1Cl)C1CCCC(C(=O)O)C1 (stereo not shown) [Example 1-58, 3-{[4-(2,4-Dichloro-phenoxy)-butyryl]-methyl-amino}-cyclo-hexanecarboxylic acid]	55 nM
CN(C(=O)CCCOc1ccc(Cl)cc1Cl)C1CCC(CO)CC1 (stereo not shown) [Example 1-60, 4-(2,4-Dichloro-phenoxy)-N-(4-hydroxy-methyl-cyclohexyl)-N-methyl-butyramide]	1 nM
O=C(CCCOc1ccc(Cl)cc1Cl)N[C@@]12C[C@@H]3C[C@@H](C[C@@](O)(C3)C1)C2 [Example 1-1, 4-(2,4-Dichloro-phenoxy)-N-((1R,3S,5R,7S)-3-hydroxy-adamantan-1-yl)-butyramide]	27 nM
CCN(C(=O)CCCOc1ccccc1)C1C2CC3CC1CC(O)(C3)C2 (stereo not shown) [Example 1-51, N-Ethyl-N-(5-hydroxy-adamantan-2-yl)-4-phenoxy-butyramide]	61 nM
CN(C(=O)CCCOc1ccc(Cl)cc1Cl)C1CCC(S(=O)(=O)N(C)C)CC1 (stereo not shown) [Example 1-71, 4-(2,4-Dichloro-phenoxy)-N-(4-dimethyl-sulfamoyl-cyclohexyl)-N-methyl-butyramide]	21 nM
COC(=O)C1CC2CCC(C1)N2C(=O)CCCOc1ccc(Cl)cc1Cl (stereo not shown) [Example 1-17, 8-[4-(2,4-Dichloro-phenoxy)-butyryl]-8-aza-bicyclo[3.2.1]octane-3-carboxylic acid methyl ester]	7 nM
O=C(CCCOc1ccc(Cl)cc1Cl)N1CC2CCC(CC2)C1 [Example 1-15, 1-(3-Aza-bicyclo[3.2.2]-non-3-yl)-4-(2,4-di-chloro-phenoxy)-butan-1-one]	52 nM
O=C(CCCOc1ccc(Cl)cc1Cl)NC(c1ccccc1)C1CC1 (stereo not shown) [Example 1-3, N-(Cyclopropyl-phenyl-methyl)-4-(2,4-dichloro-phenoxy)-butyramide]	405 nM
CN(C(=O)CCCOc1ccc(Cl)cc1Cl)C1CCC(C(=O)O)CC1 (stereo not shown) [Example 1-74, 4-{[4-(2,4-Dichloro-phenoxy)-butyryl]-methyl-amino}-cyclo-hexanecarboxylic acid]	809 nM
CN(C(=O)CCCOc1ccc(Cl)cc1Cl)C1CCC(C(C)(C)O)CC1 (stereo not shown) [Example 1-78, 4-(2,4-Dichloro-phenoxy)-N-[4-(1-hydroxy-1-methyl-ethyl)-cyclohexyl]-N-methyl-butyramide]	23 nM
CN(C(=O)CCCOc1ccccc1)C1C2CC3CC1CC(O)(C3)C2 (stereo not shown) [Example 1-42, N-(5-Hydroxy-adamantan-2-yl)-N-methyl-4-phenoxy-butyramide]	1340 nM
O=C(CCCOc1ccccc1)NC1C2CC3CC1CC(CO)(C3)C2 (stereo not shown) [Example 1-54, N-(5-Hydroxymethyl-adamantan-2-yl)-4-phenoxy-butyramide]	10 nM
CN(C(=O)CCCOc1ccccc1)C1CCC(O)CC1 (stereo not shown) [Example 1-37, N-(4-Hydroxy-cyclohexyl)-N-methyl-4-phenoxy-butyramide]	1820 nM
O=C(CCCOc1ccc(Cl)cc1Cl)N1CC2CC1CC2O (stereo not shown) [Example 1-24, 4-(2,4-Dichloro-phenoxy)-1-(5-hydroxy-2-aza-bicyclo[2.2.1]hept-2-yl)-butan-1-one]	20 nM
O=C(CCCOc1ccccc1)NC12CC3CC(CC(CO)(C3)C1)C2 [Example 1-45, N-(3-Hydroxymethyl-adamantan-1-yl)-4-phenoxy-butyramide]	9 nM
O=C(CCCOc1ccc(Cl)cc1Cl)N1CCCCC1c1ccccc1Cl (stereo not shown) [Example 1-4, 1-[2-(2-Chloro-phenyl)-piperidin-1-yl]-4-(2,4-dichloro-phenoxy)-butan-1-one]	296 nM
CN(C(=O)CCCOc1ccc(Cl)cc1Cl)C1CCC(C(N)=O)CC1 (stereo not shown) [Example 1-76, 4-{[4-(2,4-Dichloro-phenoxy)-butyryl]-methyl-amino}-cyclo-hexanecarboxylic acid amide]	18 nM
COC(=O)C12CC3CC(CC(NC(=O)CCCOc4ccc(Cl)cc4Cl)(C3)C1)C2 [Example 1-30, 3-[4-(2,4-Dichloro-phenoxy)-butyrylamino]-adamantane-1-carboxylic acid methyl ester]	10 nM
CN(C(=O)CCCOc1ccc(Cl)cc1Cl)C1CC2CC1CC2O (stereo not shown) [Example 1-64, 4-(2,4-Dichloro-phenoxy)-N-(5-hydroxy-bicyclo[2.2.1]hept-2-yl)-N-methyl-butyramide]	2 nM

The remaining lines, values ahead:

IC50	Structure (SMILES)
3 nM	COC(=O)C12CC3CC(CN(C(=O)CCCOc4ccc(Cl)cc4Cl)C(C3)C1)C2 (stereo not shown) [Example 1-66, 4-[4-(2,4-Dichloro-phenoxy)-butyryl]-4-aza-tricyclo[4.3.1.1{3,8}]-undecane-1-carboxylic acid methyl ester]
4 nM	CN(C(=O)CCCOc1ccc(Cl)cc1Cl)C1C2CC3CC1CC(CO)(C3)C2 (stereo not shown) [Example 1-65, 4-(2,4-Dichloro-phenoxy)-N-(5-hydroxy-methyl-adamantan-2-yl)-N-methyl-butyramide]
2 nM	CC(C)(CCOc1ccc(Cl)cc1Cl)C(=O)NC1C2CC3CC1CC(O)(C3)C2 (stereo not shown) [Example 2-1, 4-(2,4-Dichloro-phenoxy)-N-(5-hydroxy-adamantan-2-yl)-2,2-dimethyl-butyramide]
206 nM	CC(C)(CCOc1ccc(Cl)cc1Cl)C(=O)N1C2CCC1CC(O)C2 (stereo not shown) [Example 2-3, 4-(2,4-Dichloro-phen-oxy)-1-(3-hydroxy-8-aza-bicyclo[3.2.1]oct-8-yl)-2,2-dimethyl-butan-1-one]
322 nM	CC(C)N(C(=O)CCCOc1ccc(Cl)cc1Cl)C1C2CC3CC1CC(O)(C3)C2 (stereo not shown) [Example 1-56, 4-(2,4-Dichloro-phenoxy)-N-(5-hydroxy-adamantan-2-yl)-N-isopropyl-butyramide]
7 nM	CCN(C(=O)CCCOc1ccc(Cl)cc1Cl)C1C2CC3CC1CC(O)(C3)C2 (stereo not shown) [Example 1-33, 4-(2,4-Dichloro-phenoxy)-N-ethyl-N-(5-hydroxy-adamantan-2-yl)-butyramide]
172 nM	CCN(C(=O)CCCOc1ccc(Cl)cc1Cl)C1C2CC3CC1CC(O)(C3)C2 (stereo not shown) [Example 1-34, 4-(2,4-Dichloro-phenoxy)-N-ethyl-N-(5-hydroxy-adamantan-2-yl)-butyramide]
17 nM	COC(=O)C12CC3CC(C1)C(NC(=O)CCCOc1ccc(Cl)cc1Cl)C(C3)C2 (stereo not shown) [Example 1-68, 4-[4-(2,4-Dichloro-phenoxy)-butyrylamino]-adamantane-1-carboxylic acid methyl ester]
24 nM	O=C(CCCOc1ccc(Cl)cc1Cl)N(C1CC1)C1C2CC3CC1CC(O)(C3)C2 (stereo not shown) [Example 1-19, N-Cyclopropyl-4-(2,4-dichloro-phenoxy)-N-(5-hydroxy-adamantan-2-yl)-butyramide]
3 nM	CC(C)(CCOc1ccc(Cl)cc1Cl)C(=O)NC1C2CC3CC1CC(CO)(C3)C2 (stereo not shown) [Example 2-4, 4-(2,4-Dichloro-phen-oxy)-N-(5-hydroxy-methyl-adamantan-2-yl)-2,2-dimethyl-butyramide]
